From PubChem BioAssay AID248 (DTP/NCI, 2004)
Several values for one entry are separate records, joined by “and”; a condition that tells them apart may be missing. Equal entries are not always repeated. Inconclusive results and toxic doses are left out.

Tested on: L1210 leukemia ip in BDF1 mice, survival T/C
Experiment: NCI In Vivo Anticancer Drug Screen. Data for tumor model L1210 Leukemia (intraperitoneal) in B6D2F1 (BDF1) mice
Conditions: endpoint: mean survival time, higher = longer survival
In short: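 Tumor was transplanted into mice, which were then dosed with test compound or vehicle alone. Survival was recorded for each group, and the treated figure was expressed relative to the control figure.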

[1] = dose: 100.0 mg/kg/injection, schedule: Q04DX003 (ip), vehicle: saline
[2] = dose: 12.5 mg/kg/injection, schedule: Q04DX003 (ip), vehicle: saline with Tween-80
[3] = dose: 25.0 mg/kg/injection, schedule: Q04DX003 (ip), vehicle: saline with Tween-80

Structure (SMILES): Nc1ncnc2c1ncn2C(C=O)OC(C=O)CO (centres undefined)
- T/C (dose: 4.37 mg/kg/injection, schedule: Q01DX009 (ip), vehicle: water): 123 % of control
- T/C (dose: 4.37 mg/kg/injection, schedule: Q01DX Z (ip), vehicle: water): 123 % of control
- T/C (dose: 8.75 mg/kg/injection, schedule: Q01DX Z (ip), vehicle: water): 157 % of control
- T/C (dose: 8.8 mg/kg/injection, schedule: Q01DX Z (ip), vehicle: carboxymethylcellulose (CMC)): 115 % of control
- T/C (dose: 13.3 mg/kg/injection, schedule: Q01DX Z (ip), vehicle: carboxymethylcellulose (CMC)): 121 % of control
- T/C (dose: 17.5 mg/kg/injection, schedule: Q01DX009 (ip), vehicle: water): 172 % of control
- T/C (dose: 17.5 mg/kg/injection, schedule: Q01DX Z (ip), vehicle: water): 172 % of control
- T/C (dose: 30.0 mg/kg/injection, schedule: Q01DX Z (ip), vehicle: carboxymethylcellulose (CMC)): 116 % of control
- T/C (dose: 35.0 mg/kg/injection, schedule: Q01DX Z (ip), vehicle: water): 92 % of control
- T/C (dose: 42.0 mg/kg/injection, schedule: Q01DX Z (oral), vehicle: carboxymethylcellulose (CMC)): 115 % of control
- T/C (dose: 45.0 mg/kg/injection, schedule: Q01DX Z (ip), vehicle: carboxymethylcellulose (CMC)): 100 % of control and 101 % of control
- T/C (dose: 64.0 mg/kg/injection, schedule: Q01DX Z (oral), vehicle: carboxymethylcellulose (CMC)): 107 % of control
- T/C (dose: 68.0 mg/kg/injection, schedule: Q01DX Z (ip), vehicle: carboxymethylcellulose (CMC)): 105 % of control and 121 % of control
- T/C (dose: 79.0 mg/kg/injection, schedule: Q01DX009 (oral), vehicle: saline): 109 % of control
- T/C (dose: 96.0 mg/kg/injection, schedule: Q01DX Z (oral), vehicle: carboxymethylcellulose (CMC)): 109 % of control
- T/C (dose: 119.0 mg/kg/injection, schedule: Q01DX009 (oral), vehicle: saline): 109 % of control
- T/C (dose: 144.0 mg/kg/injection, schedule: Q01DX Z (oral), vehicle: carboxymethylcellulose (CMC)): 96 % of control
- T/C (dose: 178.0 mg/kg/injection, schedule: Q01DX009 (oral), vehicle: saline): 112 % of control

Structure (SMILES): C(=N\Nc1nnc(N/N=C/C2CCCCC2)c2ccccc12)/C1CCCCC1
- T/C (dose: 50.0 mg/kg/injection, schedule: Q01DX001 (ip), vehicle: saline): 100 % of control

Structure (SMILES): CCC[CH2][Sn]([I])([CH2]I)[CH2]CCC
- T/C (dose: 6.25 mg/kg/injection, schedule: Q04DX002 (ip), vehicle: saline with Tween-80): 112 % of control
- T/C (dose: 12.5 mg/kg/injection, schedule: Q04DX002 (ip), vehicle: saline with Tween-80): 112 % of control

Structure (SMILES): CCN(CCC[N+](C)(C)C)C(=O)C(c1ccccc1)c1ccccc1
- T/C [1]: 93 % of control

Structure (SMILES): c1ccc2c(C(CCN3CCCCC3)CNC3=NCCN3)cccc2c1 (centres undefined)
- T/C (dose: 5.0 mg/kg/injection, schedule: Q04DX003 (ip), vehicle: saline with Tween-80): 96 % of control
- T/C (dose: 10.0 mg/kg/injection, schedule: Q04DX003 (ip), vehicle: saline with Tween-80): 105 % of control
- T/C (dose: 20.0 mg/kg/injection, schedule: Q04DX003 (ip), vehicle: saline with Tween-80): 98 % of control

Structure (SMILES): CC1Cc2ccccc2C2=C3CC=CCC3C3C(=O)OC(=O)C3C21 (centres undefined)
- T/C (dose: 75.0 mg/kg/injection, schedule: Q01DX001 (ip), vehicle: carboxymethylcellulose (CMC)): 89 % of control
- T/C (dose: 150.0 mg/kg/injection, schedule: Q01DX001 (ip), vehicle: carboxymethylcellulose (CMC)): 94 % of control
- T/C (dose: 300.0 mg/kg/injection, schedule: Q01DX001 (ip), vehicle: carboxymethylcellulose (CMC)): 90 % of control

Structure (SMILES): CCOC(=O)Cn1c(=O)cc(C=O)c2ccccc21
- T/C (dose: 100.0 mg/kg/injection, schedule: Q01DX001 (ip), vehicle: carboxymethylcellulose (CMC)): 91 % of control
- T/C (dose: 200.0 mg/kg/injection, schedule: Q01DX001 (ip), vehicle: carboxymethylcellulose (CMC)): 91 % of control
- T/C (dose: 400.0 mg/kg/injection, schedule: Q01DX001 (ip), vehicle: carboxymethylcellulose (CMC)): 89 % of control

Structure (SMILES): CCN(CC)CCN(C)C(=O)C1C(c2ccccc2)C1c1ccccc1 (centres undefined)
- T/C (dose: 25.0 mg/kg/injection, schedule: Q04DX002 (ip), vehicle: Klucel (hydroxypropylcellulose) (HPC)): 93 % of control
- T/C (dose: 50.0 mg/kg/injection, schedule: Q04DX002 (ip), vehicle: Klucel (hydroxypropylcellulose) (HPC)): 105 % of control

Structure (SMILES): CC(O)(C(=O)O)c1ccccc1 (centres undefined)
- T/C (dose: 75.0 mg/kg/injection, schedule: Q01DX009 (ip), vehicle: other): 99 % of control
- T/C [1]: 100 % of control
- T/C (dose: 150.0 mg/kg/injection, schedule: Q01DX009 (ip), vehicle: other): 94 % of control
- T/C (dose: 200.0 mg/kg/injection, schedule: Q04DX003 (ip), vehicle: saline): 105 % of control
- T/C (dose: 300.0 mg/kg/injection, schedule: Q01DX009 (ip), vehicle: other): 100 % of control
- T/C (dose: 400.0 mg/kg/injection, schedule: Q04DX003 (ip), vehicle: saline): 91 % of control

Structure (SMILES): NS(=O)(=O)c1ccc(N/N=c2\c(=O)c(=O)c3ccccc3c2=O)cc1
- T/C (dose: 100.0 mg/kg/injection, schedule: Q01DX001 (ip), vehicle: other): 101 % of control
- T/C (dose: 100.0 mg/kg/injection, schedule: Q04DX003 (ip), vehicle: other): 95 % of control
- T/C (dose: 200.0 mg/kg/injection, schedule: Q01DX001 (ip), vehicle: other): 90 % of control
- T/C (dose: 200.0 mg/kg/injection, schedule: Q04DX003 (ip), vehicle: other): 108 % of control
- T/C (dose: 400.0 mg/kg/injection, schedule: Q01DX001 (ip), vehicle: other): 93 % of control
- T/C (dose: 400.0 mg/kg/injection, schedule: Q04DX003 (ip), vehicle: other): 90 % of control

Structure (SMILES): CC(C)=CCC/C(C)=C/CN1C(=O)CC(C)=C(C)C1=O
- T/C (dose: 100.0 mg/kg/injection, schedule: Q01DX009 (ip), vehicle: saline with Tween-80): 97 % of control
- T/C (dose: 100.0 mg/kg/injection, schedule: Q04DX003 (ip), vehicle: saline with Tween-80): 95 % of control
- T/C (dose: 200.0 mg/kg/injection, schedule: Q01DX009 (ip), vehicle: saline with Tween-80): 95 % of control
- T/C (dose: 200.0 mg/kg/injection, schedule: Q04DX003 (ip), vehicle: saline with Tween-80): 104 % of control
- T/C (dose: 400.0 mg/kg/injection, schedule: Q01DX009 (ip), vehicle: saline with Tween-80): 95 % of control
- T/C (dose: 400.0 mg/kg/injection, schedule: Q04DX003 (ip), vehicle: saline with Tween-80): 95 % of control

Structure (SMILES): COC1OC2COc3ccccc3OC2C2C1N2C(c1ccccc1)N1C2C(OC)OC3COc4ccccc4OC3C21 (centres undefined)
- T/C (dose: 100.0 mg/kg/injection, schedule: Q04DX002 (ip), vehicle: Klucel (hydroxypropylcellulose) (HPC)): 93 % of control
- T/C (dose: 200.0 mg/kg/injection, schedule: Q04DX002 (ip), vehicle: Klucel (hydroxypropylcellulose) (HPC)): 100 % of control
- T/C (dose: 400.0 mg/kg/injection, schedule: Q04DX002 (ip), vehicle: Klucel (hydroxypropylcellulose) (HPC)): 107 % of control

Structure (SMILES): COC(=O)c1c[nH]c(=O)cc1O
- T/C (dose: 100.0 mg/kg/injection, schedule: Q01DX001 (ip), vehicle: saline): 101 % of control
- T/C (dose: 200.0 mg/kg/injection, schedule: Q01DX001 (ip), vehicle: saline): 98 % of control
- T/C (dose: 400.0 mg/kg/injection, schedule: Q01DX001 (ip), vehicle: saline): 98 % of control

Structure (SMILES): O=C(O)c1cc(CBr)ccc1CBr
- T/C (dose: 6.25 mg/kg/injection, schedule: Q01DX009 (ip), vehicle: saline with Tween-80): 100 % of control
- T/C (dose: 6.25 mg/kg/injection, schedule: Q04DX003 (ip), vehicle: saline with Tween-80): 93 % of control
- T/C (dose: 12.5 mg/kg/injection, schedule: Q01DX009 (ip), vehicle: saline with Tween-80): 103 % of control
- T/C [2]: 94 % of control
- T/C (dose: 25.0 mg/kg/injection, schedule: Q01DX009 (ip), vehicle: saline with Tween-80): 95 % of control
- T/C [3]: 102 % of control

Structure (SMILES): O=S1(=O)CC(O)C(Br)C1Br (centres undefined)
- T/C (dose: 100.0 mg/kg/injection, schedule: Q01DX001 (ip), vehicle: Klucel (hydroxypropylcellulose) (HPC)): 96 % of control
- T/C (dose: 200.0 mg/kg/injection, schedule: Q01DX001 (ip), vehicle: Klucel (hydroxypropylcellulose) (HPC)): 104 % of control
- T/C (dose: 400.0 mg/kg/injection, schedule: Q01DX001 (ip), vehicle: Klucel (hydroxypropylcellulose) (HPC)): 94 % of control

Structure (SMILES): CC(C)N=C(NC(C)C)N1CC1
- T/C (dose: 10.0 mg/kg/injection, schedule: Q01DX009 (ip), vehicle: saline): 106 % of control
- T/C (dose: 20.0 mg/kg/injection, schedule: Q01DX001 (ip), vehicle: saline): 104 % of control
- T/C (dose: 20.0 mg/kg/injection, schedule: Q01DX009 (ip), vehicle: saline): 105 % of control
- T/C (dose: 40.0 mg/kg/injection, schedule: Q01DX001 (ip), vehicle: saline): 104 % of control
- T/C (dose: 40.0 mg/kg/injection, schedule: Q01DX009 (ip), vehicle: saline): 100 % of control

Structure (SMILES): CCCCCCCCCCC(=O)N1CCOCC1
- T/C [2]: 98 % of control
- T/C [3]: 95 % of control
- T/C (dose: 50.0 mg/kg/injection, schedule: Q04DX003 (ip), vehicle: saline with Tween-80): 101 % of control
